Data as given in ChEMBL document CHEMBL3046853, “Synthesis, antimicrobial evaluation, ot-QSAR and mt-QSAR studies of 2-amino benzoic acid derivatives” (2012).
Activity calls are given as the source filed them. The calls are words filed in the database; no cut-off is given here.

How the values were obtained:
Candida albicans [1] = assay: Antifungal activity against Candida albicans after 2 days by serial dilution technique; type: functional
Staphylococcus aureus [2] = assay: Bactericidal activity against Staphylococcus aureus; type: functional, organism-based
Escherichia coli [3] = assay: Bactericidal activity against Escherichia coli; type: functional, organism-based
Staphylococcus aureus [4] = assay: Antibacterial activity against Staphylococcus aureus after 24 hr by serial dilution technique; type: functional
Candida albicans [5] = assay: Fungicidal activity against Candida albicans; type: functional, organism-based
Bacillus subtilis [6] = assay: Antibacterial activity against Bacillus subtilis after 24 hr by serial dilution technique; type: functional
Aspergillus niger [7] = assay: Antifungal activity against Aspergillus niger after 7 days by serial dilution technique; type: functional
Bacillus subtilis [8] = assay: Bactericidal activity against Bacillus subtilis; type: functional, organism-based
Aspergillus niger [9] = assay: Fungicidal activity against Aspergillus niger after 7 days by serial dilution technique; type: functional, organism-based
Escherichia coli [10] = assay: Antibacterial activity against Escherichia coli after 24 hr by serial dilution technique; type: functional

Compound	-logMIC (Candida albicans [1])	Activity (Staphylococcus aureus [2])	Activity (Escherichia coli [3])	-logMIC (Staphylococcus aureus [4])	Activity (Candida albicans [5])	-logMIC (Bacillus subtilis [6])	-logMIC (Aspergillus niger [7])	Activity (Bacillus subtilis [8])	Activity (Aspergillus niger [9])	-logMIC (Escherichia coli [10])
CCCNC(=O)c1ccccc1N	1.12	Active	Active	1.15	Active	2.06	1.15	Active	Active	1.46
COc1ccc(NC(=O)c2ccccc2N)cc1	1.29	Active	Active	1.29	Active	2.19	1.29	Active	Active	1.29
CCCCNC(=O)c1ccccc1N	1.19	Active	Active	1.2	Active	1.49	1.2	Active	Active	1.19
Cc1ccc(NC(=O)c2ccccc2N)cc1	1.26	Active	Active	1.26	Active	2.16	1.26	Active	Active	1.56
Nc1ccccc1C(=O)Nc1cccc(Cl)c1	1.3	Active	Active	1.3	Active	2.2	1.3	Active	Active	1.6
Nc1ccccc1C(=O)Oc1cccc2cccnc12	1.63	Active	Active	1.93	Active	1.93	1.63	Active	Active	1.8
NC(=O)c1ccccc1N [ANTHRANILAMIDE]	1.04	Active	Active	1.04	Active	1.94	1.64	Active	Active	1.04
Cc1ccc(NC(=O)c2ccccc2N)c(C)c1	1.28	Active	Active	1.28	Active	2.19	1.28	Active	Active	1.28
Nc1ccccc1C(=O)N(c1ccccc1)c1ccccc1	1.36	Active	Active	1.36	Active	2.27	1.66	Active	Active	1.66
COC(=O)c1ccccc1N [METHYL ANTHRANILATE]	1.08	Active	Active	1.08	Active	1.99	1.08	Active	Active	1.69
Nc1ccccc1C(=O)Nc1ccccc1	1.23	Active	Active	1.23	Active	2.13	1.23	Active	Active	1.23
CCCCCCOC(=O)c1ccccc1N [HEXYL 2-AMINOBENZOATE]	1.25	Active	Active	1.25	Active	2.15	1.85	Active	Active	1.85
COc1ccccc1NC(=O)c1ccccc1N	1.29	Active	Active	1.29	Active	1.59	1.29	Active	Active	1.2
CC(C)COC(=O)c1ccccc1N [ISOBUTYL 2-AMINOBENZOATE]	0.59	Active	Active	0.89	Active	1.79	1.06	Active	Active	1.51
Cc1cccc(NC(=O)c2ccccc2N)c1	1.26	Active	Active	1.26	Active	2.16	1.26	Active	Active	1.26
